ChEMBL document CHEMBL1132568, “Synthesis, pharmacological evaluation, and structure-activity relationship and quantitative structure-activity relationship studies on novel derivatives of 2,4-diamino-6,7-dimethoxyquinazoline alpha1-adrenoceptor antagonists” (J Med Chem, 1999)

Experiments:
[1] = target: T1, 5-hydroxytryptamine receptor 1A (Rattus norvegicus, UniProt P19327); assay: Inhibitory concentration against 5-hydroxytryptamine 1A receptor (Inactive at >1000 nM concentration)
T1 sequence (P19327 whole entry): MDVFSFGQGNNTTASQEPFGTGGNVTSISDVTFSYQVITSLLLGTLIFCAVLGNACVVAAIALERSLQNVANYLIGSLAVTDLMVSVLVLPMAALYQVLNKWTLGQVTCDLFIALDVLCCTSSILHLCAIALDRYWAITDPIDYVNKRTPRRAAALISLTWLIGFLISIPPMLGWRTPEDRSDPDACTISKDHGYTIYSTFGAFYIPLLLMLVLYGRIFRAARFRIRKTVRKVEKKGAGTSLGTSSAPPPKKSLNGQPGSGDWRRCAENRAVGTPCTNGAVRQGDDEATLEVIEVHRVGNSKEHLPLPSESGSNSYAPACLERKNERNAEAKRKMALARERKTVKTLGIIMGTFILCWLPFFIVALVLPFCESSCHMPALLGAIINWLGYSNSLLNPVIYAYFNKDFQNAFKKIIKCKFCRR

[2] = target: T2, Adrenergic receptor alpha-1 (Rattus norvegicus, UniProt P15823+P23944+P43140); assay: Inhibition of Alpha-1 adrenergic receptor in rat cortex membrane; assay type: cell membranes
T2 sequence (P15823 whole entry): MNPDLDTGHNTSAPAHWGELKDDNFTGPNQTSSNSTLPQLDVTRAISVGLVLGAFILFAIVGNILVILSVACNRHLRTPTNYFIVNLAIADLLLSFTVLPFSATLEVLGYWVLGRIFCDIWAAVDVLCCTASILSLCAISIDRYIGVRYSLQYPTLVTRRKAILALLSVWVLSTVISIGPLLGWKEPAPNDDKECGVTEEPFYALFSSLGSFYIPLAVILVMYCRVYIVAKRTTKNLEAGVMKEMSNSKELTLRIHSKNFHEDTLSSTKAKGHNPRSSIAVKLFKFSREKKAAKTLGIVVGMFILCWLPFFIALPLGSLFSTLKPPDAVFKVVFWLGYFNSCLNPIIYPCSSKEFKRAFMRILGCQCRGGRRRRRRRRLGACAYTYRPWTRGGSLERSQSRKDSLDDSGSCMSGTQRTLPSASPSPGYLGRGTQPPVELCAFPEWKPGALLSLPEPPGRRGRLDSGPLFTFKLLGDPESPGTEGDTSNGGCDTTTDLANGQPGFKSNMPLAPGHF
T2 sequence (P23944 whole entry): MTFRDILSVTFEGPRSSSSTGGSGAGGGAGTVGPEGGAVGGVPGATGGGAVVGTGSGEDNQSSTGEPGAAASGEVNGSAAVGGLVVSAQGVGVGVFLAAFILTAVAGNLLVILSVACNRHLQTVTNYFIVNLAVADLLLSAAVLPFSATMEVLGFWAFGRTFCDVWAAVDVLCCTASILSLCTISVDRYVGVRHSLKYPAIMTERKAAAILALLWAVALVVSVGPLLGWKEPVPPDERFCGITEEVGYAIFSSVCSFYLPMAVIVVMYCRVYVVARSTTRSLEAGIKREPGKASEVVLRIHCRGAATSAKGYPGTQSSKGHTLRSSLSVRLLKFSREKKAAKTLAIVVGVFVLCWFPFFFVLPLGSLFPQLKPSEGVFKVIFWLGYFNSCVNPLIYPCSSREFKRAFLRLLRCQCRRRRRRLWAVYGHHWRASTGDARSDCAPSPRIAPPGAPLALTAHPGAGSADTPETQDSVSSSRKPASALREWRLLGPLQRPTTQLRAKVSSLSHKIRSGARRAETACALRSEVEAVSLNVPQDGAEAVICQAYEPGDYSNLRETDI
T2 sequence (P43140 whole entry): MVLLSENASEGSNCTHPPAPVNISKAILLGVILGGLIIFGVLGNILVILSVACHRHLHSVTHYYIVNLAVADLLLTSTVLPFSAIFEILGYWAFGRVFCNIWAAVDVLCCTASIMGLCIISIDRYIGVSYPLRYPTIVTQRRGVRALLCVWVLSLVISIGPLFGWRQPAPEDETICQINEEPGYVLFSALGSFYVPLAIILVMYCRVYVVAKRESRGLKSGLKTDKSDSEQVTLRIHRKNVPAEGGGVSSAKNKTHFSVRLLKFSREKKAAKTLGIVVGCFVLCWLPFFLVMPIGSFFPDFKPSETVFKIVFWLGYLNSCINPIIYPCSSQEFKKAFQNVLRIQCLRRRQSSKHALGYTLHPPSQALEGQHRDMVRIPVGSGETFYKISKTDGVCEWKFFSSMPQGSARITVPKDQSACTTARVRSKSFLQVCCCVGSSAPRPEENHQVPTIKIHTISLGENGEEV

[3] = target: 5-hydroxytryptamine receptor 2A (Rattus norvegicus, UniProt P14842); assay: Inhibitory concentration against 5-hydroxytryptamine 2A receptor (Inactive at >1000 nM concentration)
[4] = target: T3, Adrenergic receptor alpha-2 (Rattus norvegicus, UniProt P22086+P19328+P22909); assay: Inhibitory concentration against Alpha-2 adrenergic receptor; assay type: protein assay
T3 sequence (P22086 whole entry): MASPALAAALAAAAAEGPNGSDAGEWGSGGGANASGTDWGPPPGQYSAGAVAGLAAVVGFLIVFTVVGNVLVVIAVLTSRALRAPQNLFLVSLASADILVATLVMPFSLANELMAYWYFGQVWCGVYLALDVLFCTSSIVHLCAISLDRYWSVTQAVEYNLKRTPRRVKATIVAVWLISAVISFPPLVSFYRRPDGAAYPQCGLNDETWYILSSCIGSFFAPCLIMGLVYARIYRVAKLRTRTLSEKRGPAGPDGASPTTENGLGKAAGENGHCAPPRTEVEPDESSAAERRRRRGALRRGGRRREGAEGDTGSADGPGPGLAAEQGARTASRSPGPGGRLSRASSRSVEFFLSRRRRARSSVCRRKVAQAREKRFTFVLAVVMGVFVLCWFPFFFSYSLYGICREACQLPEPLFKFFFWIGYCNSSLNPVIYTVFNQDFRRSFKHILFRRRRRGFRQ
T3 sequence (P19328 whole entry): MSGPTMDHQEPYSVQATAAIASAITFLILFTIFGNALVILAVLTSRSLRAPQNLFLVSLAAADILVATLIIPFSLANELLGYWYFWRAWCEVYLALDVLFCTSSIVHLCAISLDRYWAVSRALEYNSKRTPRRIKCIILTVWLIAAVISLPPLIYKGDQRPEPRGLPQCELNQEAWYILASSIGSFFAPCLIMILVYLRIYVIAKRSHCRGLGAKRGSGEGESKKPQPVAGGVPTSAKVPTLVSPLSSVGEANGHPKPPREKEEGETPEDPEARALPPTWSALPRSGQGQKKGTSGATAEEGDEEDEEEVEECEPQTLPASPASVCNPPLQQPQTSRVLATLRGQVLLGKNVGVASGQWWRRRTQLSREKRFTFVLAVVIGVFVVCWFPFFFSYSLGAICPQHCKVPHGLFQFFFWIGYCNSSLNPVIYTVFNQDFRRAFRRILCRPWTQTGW
T3 sequence (P22909 whole entry): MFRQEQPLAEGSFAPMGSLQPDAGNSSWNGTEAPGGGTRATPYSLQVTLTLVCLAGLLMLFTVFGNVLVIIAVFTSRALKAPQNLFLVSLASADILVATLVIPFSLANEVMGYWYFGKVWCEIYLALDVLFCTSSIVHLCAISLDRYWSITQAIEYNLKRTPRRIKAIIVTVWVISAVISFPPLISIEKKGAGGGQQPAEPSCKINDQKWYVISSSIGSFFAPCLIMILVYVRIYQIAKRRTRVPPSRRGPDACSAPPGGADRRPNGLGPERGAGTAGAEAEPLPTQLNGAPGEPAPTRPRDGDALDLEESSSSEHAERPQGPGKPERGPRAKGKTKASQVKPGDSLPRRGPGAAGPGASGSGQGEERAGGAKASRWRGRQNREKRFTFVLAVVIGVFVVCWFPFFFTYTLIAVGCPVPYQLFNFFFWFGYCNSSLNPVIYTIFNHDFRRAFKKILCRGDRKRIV

[5] = target: D(2) dopamine receptor (Rattus norvegicus, UniProt P61169); assay: Inhibitory concentration against Dopamine receptor D2 (Inactive at >1000 nM concentration)
[6] = target: T4, Alpha-1A adrenergic receptor (Rattus norvegicus, UniProt P43140); assay: The binding affinity towards Alpha-1A adrenergic receptor in the COS cell line.; assay type: cell-based
T4 sequence (P43140 whole entry): T2 sequence (P43140 whole entry)

[7] = tested on: Canis familiaris; assay: In vivo hypotensive effect(DBP) in dog after intravenous administration.; assay type: functional, Canis lupus familiaris
[8] = tested on: Canis familiaris; assay: In vivo effect on urethral contractility (UP) of dog after intravenous administration.; assay type: functional, Canis lupus familiaris, Urethra

Chain of D(2) dopamine receptor (P61169 whole entry): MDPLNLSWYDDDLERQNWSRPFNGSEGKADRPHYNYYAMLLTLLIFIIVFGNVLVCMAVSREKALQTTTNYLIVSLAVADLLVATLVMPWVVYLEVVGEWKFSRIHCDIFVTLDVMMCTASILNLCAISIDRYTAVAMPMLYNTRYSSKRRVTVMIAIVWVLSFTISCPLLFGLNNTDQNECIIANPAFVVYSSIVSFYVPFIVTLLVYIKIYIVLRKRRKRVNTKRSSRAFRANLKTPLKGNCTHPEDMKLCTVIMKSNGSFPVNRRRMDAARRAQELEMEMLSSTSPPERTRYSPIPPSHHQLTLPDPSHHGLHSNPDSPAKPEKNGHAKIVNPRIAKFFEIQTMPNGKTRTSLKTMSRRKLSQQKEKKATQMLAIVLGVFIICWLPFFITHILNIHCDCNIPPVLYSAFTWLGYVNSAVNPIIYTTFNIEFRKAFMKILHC
Chain of 5-hydroxytryptamine receptor 2A (P14842 whole entry): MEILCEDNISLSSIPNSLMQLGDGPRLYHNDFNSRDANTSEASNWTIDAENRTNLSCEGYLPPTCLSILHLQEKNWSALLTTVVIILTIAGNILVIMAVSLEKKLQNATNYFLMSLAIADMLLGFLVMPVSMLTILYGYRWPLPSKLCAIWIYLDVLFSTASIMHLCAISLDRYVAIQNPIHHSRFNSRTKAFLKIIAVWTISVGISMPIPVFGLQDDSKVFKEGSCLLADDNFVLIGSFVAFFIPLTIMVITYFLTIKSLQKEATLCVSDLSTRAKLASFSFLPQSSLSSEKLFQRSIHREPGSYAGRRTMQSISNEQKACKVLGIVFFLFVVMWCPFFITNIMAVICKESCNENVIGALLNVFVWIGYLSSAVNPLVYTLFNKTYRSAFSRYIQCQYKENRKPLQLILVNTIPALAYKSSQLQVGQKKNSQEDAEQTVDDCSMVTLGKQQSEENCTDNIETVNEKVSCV

Row | SMILES | IC50 [1] | IC50 [2] | IC50 [3] | IC50 [4] | IC50 [5] | Ki [6] | ED25 [7] | ED50 [8]
1 | COc1cc2nc(N3CCNCC3)nc(N)c2cc1OC | > 1000 nM | 340 nM | > 1000 nM | > 1000 nM | > 1000 nM |  |  | 
2 | COc1cc2nc(N3CCN(C(=O)c4ccccc4)CC3)nc(N)c2cc1OC | > 1000 nM | 4.6 nM | > 1000 nM | > 1000 nM | > 1000 nM |  |  | 
3 | COc1cc2nc(N3CCN(C(=O)C(C)(C)C)CC3)nc(N)c2cc1OC | > 1000 nM | 340 nM | > 1000 nM | > 1000 nM | > 1000 nM |  |  | 
4 | COc1cc2nc(N3CCC(c4ccccc4)(c4ccccc4)CC3)nc(N)c2cc1OC | > 1000 nM | 259 nM | > 1000 nM | > 1000 nM | > 1000 nM |  |  | 
5 | COc1cc2nc(N(C)CCC(c3ccccc3)c3ccccc3)nc(N)c2cc1OC | > 1000 nM | 85 nM | > 1000 nM | > 1000 nM | > 1000 nM |  |  | 
6 | COc1cc2nc(N[C@H](C)Cc3ccc(OC)c(S(N)(=O)=O)c3)nc(N)c2cc1OC | > 1000 nM | 3140 nM | > 1000 nM | > 1000 nM | > 1000 nM |  |  | 
7 | COc1cc2nc(N3CC[N+]([O-])(Cc4ccccc4)CC3)nc(N)c2cc1OC | > 1000 nM | > 1000 nM | > 1000 nM | > 1000 nM | > 1000 nM |  |  | 
8 | COc1cc2nc(N3CCN(C(c4ccccc4)c4ccccc4)CC3)nc(N)c2cc1OC | > 1000 nM | 40 nM | > 1000 nM | > 1000 nM | > 1000 nM |  |  | 
9 | COc1cc2nc(N3CCN(C(C)=O)CC3)nc(N)c2cc1OC | > 1000 nM | 45 nM | > 1000 nM | > 1000 nM | > 1000 nM |  |  | 
10 | COc1cc2nc(N(C)Cc3ccccc3)nc(N)c2cc1OC | > 1000 nM | 70 nM | > 1000 nM | > 1000 nM | > 1000 nM |  |  | 
11 | COc1cc2nc(N3CCN(C(C)=O)CC3)nc(NC(C)=O)c2cc1OC | > 1000 nM | 5080 nM | > 1000 nM | > 1000 nM | > 1000 nM |  |  | 
12 | COc1cc2nc(N3CCc4ccccc4C3)nc(N)c2cc1OC | > 1000 nM | 4.1 nM | > 1000 nM | > 1000 nM | > 1000 nM |  |  | 
13 | COc1cc2nc(N3CCN(C(=O)C(C)(C)Oc4ccccc4OC)CC3)nc(N)c2cc1OC | > 1000 nM | 49 nM | > 1000 nM | > 1000 nM | > 1000 nM |  |  | 
14 | COc1cc2nc(N3CCN(C(=O)COc4c(OC)cccc4OC)CC3)nc(N)c2cc1OC | > 1000 nM | 6 nM | > 1000 nM | > 1000 nM | > 1000 nM | 36.2 nM |  | 
15 | COc1cc2nc(N3CCN(OCc4ccccc4)CC3)nc(N)c2cc1OC | > 1000 nM | 111 nM | > 1000 nM | > 1000 nM | > 1000 nM |  |  | 
16 | COc1cc2nc(N3CCN(C(=O)C(c4ccccc4)c4ccccc4)CC3)nc(N)c2cc1OC | > 1000 nM | 3.2 nM | > 1000 nM | > 1000 nM | > 1000 nM |  |  | 
17 | COc1cc2nc(N3CCN(Cc4ccccc4)CC3)nc(N)c2cc1OC | > 1000 nM | 32 nM | > 1000 nM | > 1000 nM | > 1000 nM |  |  | 
18 | COc1cc2nc(N3CCc4c(ccc5ccccc45)C3)nc(N)c2cc1OC | > 1000 nM | 1.6 nM | > 1000 nM | > 1000 nM | > 1000 nM |  |  | 
19 | COc1cc2c(cc1OC)CN(c1nc(N)c3cc(OC)c(OC)cc3n1)CC2 | > 1000 nM | 0.2 nM | > 1000 nM | > 1000 nM | > 1000 nM |  |  | 
20 | COc1cc2nc(N3CCN(C(=O)COc4c(OC)cccc4C(C)C)CC3)nc(N)c2cc1OC | > 1000 nM | 4 nM | > 1000 nM | > 1000 nM | > 1000 nM | 7.5 nM | 0.183 mg/kg | 0.065 mg/kg
21 | COc1cc2nc(N3CCN(C(=O)C(C)(C)Oc4c(OC)cccc4C(C)C)CC3)nc(N)c2cc1OC | > 1000 nM | 1180 nM | > 1000 nM | > 1000 nM | > 1000 nM |  |  | 
